Data: patent US20070197452A1, “Treatment of amyloid-related diseases” (priority 2006, published 2007)
Entries after “also recorded” stand apart in the source; their conditions may differ. Marks after values point to notes of the source that are not given here.

Tests used:
Assay type in all cases: in vivo, mouse
Aβ40 = target: T1, Aβ40 (Homo sapiens, UniProt P05067); test: Cerebral Aβ40 content of hemi-brain homogenates (commercial kit); details: for brain Aβ40 levels: TgCRND8 mice with pre-existing disease, 28 days from 5 months of age
T1 construct: analyzed for Aβ40 and Aβ42 using commercially available kits; from tissue; host or cells: hemi-brain homogenates of TgCRND8 transgenic mice
Method: (§1) Plasma and Cerebral Aβ Content. Hemi-brain samples were homogenized in a buffered sucrose solution, followed by either 0.4% diethylamine/100 mM NaCl for soluble Aβ levels or cold formic acid for the isolation of total Aβ. After neutralization, the samples were diluted and analyzed for Aβ40 and Aβ42 using commercially available kits (BIOSOURCE International). Each hemisphere was analyzed in triplicate and the mean values±SEM reported. Western blot analyses were performed on all fractions using urea gels for Aβ species analyses. Aβ was detected using 6E10 (BIOSOURCE International) and Enhanced Chemiluminenscence (Amersham).
(§2) Plasma and cerebral Aβ content. Hemi-brain samples were homogenized in a buffered sucrose solution, followed by either a mixture of 0.4% diethylamine and 100 mM NaCl for soluble Aβ levels or cold formic acid for the isolation of total Aβ. After neutralization, samples were diluted and analyzed for Aβ40 and Aβ42 using commercially available kits (Biosource International). Each hemisphere was analyzed in triplicate and the mean±s.e.m. was reported. Western blot analyses were carried out on all fractions using urea gels for Aβ species analyses. Aβ was detected using 6E10 (Biosource International).

Aβ42 = target: T2, Aβ42 (Homo sapiens, UniProt P05067); test: Cerebral Aβ42 content of hemi-brain homogenates (commercial kit); details: for brain Aβ42 levels: TgCRND8 mice with pre-existing disease, 28 days from 5 months of age
T2 construct: analyzed for Aβ40 and Aβ42 using commercially available kits; from tissue; host or cells: hemi-brain homogenates and plasma of TgCRND8 transgenic mice
Method: as §1, §2

TgCRND8 mice [1] = test: Cerebral amyloid plaque burden (anti-Aβ immunostaining, image analysis); details: for amyloid burden in hippocampus and cerebral cortex: TgCRND8 mice at six months of age
Method: Cerebral amyloid burden. […] To generate sets of systematic uniform random sections, 5 μm serial sections were collected across the entire hemisphere. Sets of sections at 50 μm intervals were used for analyses (10-14 sections/set). Plaques were identified after antigen retrieval with formic acid, and incubation with primary anti-Aβ antibody (Dako M-0872), followed by secondary antibody (Dako StreptABCcomplex/horseradish kit). End products were visualized with DAB and were counter-stained with luxol fast blue. Amyloid plaque burden was assessed with Leco IA-3001 image analysis software interfaced with Leica microscope and Hitachi KP-M1U CCD video camera. Openlab imaging software (Improvision, Lexington, Mass.) was then used to convert micrographs to binary images for plaque number and plaque area determinations. Vascular amyloid burden was defined as amyloid originating from or surrounding blood vessels and was analysed similarly. Cerebral Aβ burden. […] Sets of sections at […] intervals for analyses (10-14 sections per set) were used. Plaques with primary Aβ-specific antibody (Dako M-0872) were identified and visualized with DAB. AP plaque burden was assessed with Openlab imaging software (Improvision) and used to convert micrographs to binary images for determinations of plaque number and plaque area. Vascular Aβ burden was defined as Aβ plaques originating from or surrounding blood vessels and was analyzed similarly. Cerebral Aβ burden. […] To generate sets of systematic uniform random sections, 5 μm serial sections were collected across the entire hemisphere. Sets of sections at 50 μm intervals were used for analyses (10-14 sections/set). Plaques were identified after antigen retrieval with formic acid, and incubation with primary anti-Aβ antibody (Dako M-0872), followed by secondary antibody (Dako StreptABCcomplex/horseradish kit). End products were visualized with DAB and were counter-stained with luxol fast blue. Aβ plaque burden was assessed with Leco IA-3001 image analysis software interfaced with Leica microscope and Hitachi KP-M1U CCD video camera. Openlab imaging software (Improvision, Lexington, Mass.) was then used to convert micrographs to binary images for plaque number and plaque area determinations. Vascular Aβ burden was defined as Aβ plaques originating from or surrounding blood vessels and was analyzed similarly.

TgCRND8 mice [2] = test: Gliosis quantitation (GFAP astrocytes, CD68 microglia); details: prophylactic treatment; for astrogliosis (percent brain area covered): 4 and 6 months of age; for microgliosis / microglial activation (percent brain area covered): 6 months of age
Method: Gliosis Quantitation. Five randomly selected, evenly spaced, sagittal sections were collected from paraformaldehyde-fixed and frozen hemispheres of treated and control mice. Sections were immunolabelled for astrocytes with anti-rat GFAβ IgG2a (Dako; diluted 1:50) and for microglia with anti-rat CD68 IgG2b (Dako; 1:50). Digital images were captured using a Coolsnap digital camera (Photometrics, Tuscon, Ariz.) mounted to a Zeiss, Axioscope 2 Plus microscope. Images were analysed using Openlab 3.08 imaging software (Improvision, Lexington Mass.). Quantification of gliosis. Five randomly selected, evenly spaced sagittal sections from paraformaldehyde-fixed and frozen hemispheres of treated and control mice were collected. Sections were immunolabeled for astrocytes with an antibody against rat GFAβ IgG2a (Dako; diluted 1:50) and for microglia with an antibody to rat CD68 IgG2b (Dako; 1:50). Digital images were captured using a Coolsnap digital camera (Photometrics) mounted to a Zeiss, Axioscope 2 Plus microscope. Images were analyzed using Openlab 3.08 imaging software (Improvision).

TgCRND8 mice [3] = test: Survival census (Kaplan-Meier); details: prophylactic treatment, vs untreated, n=35 per group
Method: (§3) Survival Census: The probability of survival was assessed by the Kaplan-Meier technique, computing the probability of survival at every occurrence of death, thus making it suitable for small sample sizes. For the analyses of survival, 35 mice were used for each treatment group. The Tarone-Ware test was used to assess effects of treatments.
as §3, with “census.” for “Census:”, “using” for “by”

[4] = TgCRND8 mice, prophylactic treatment, 4 months of age
[5] = 1 month Treatment: TgCRND8 mice, oral from 5 to 6 months of age
[6] = 4-month Prophylactic: TgCRND8 mice, oral from 6 weeks to 4 months of age
[7] = 6-month Prophylactic: TgCRND8 mice, oral from 6 weeks to 6 months of age
[8] = TgCRND8 mice with pre-existing disease, 28 days from 5 months of age
[9] = TgCRND8 mice, oral, 28 days from 5 months of age, analysed at 6 months, listed as Epi-cyclohexanchexol
[10] = TgCRND8 mice, prophylactic, 6 months of age
[11] = TgCRND8 mice, 28 day course at 5 months of age, vs untreated
[12] = TgCRND8 mice, oral, 28 days from 5 months of age, analysed at 6 months

T2 sequence (P05067 672-713 limits assumed): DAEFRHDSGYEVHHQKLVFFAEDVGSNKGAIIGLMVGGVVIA
T1 sequence (P05067 672-711 limits assumed): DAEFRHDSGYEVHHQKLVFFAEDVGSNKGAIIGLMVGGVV

`OC1C(O)C(O)C(O)C(O)C1O` (stereo not drawn) [epi-cyclohexanehexol, 1,2,3,4,5/6-(epi-) cyclohexanehexol, reference compound] was tested, and the “brain Aβ40 levels” value (Aβ40) was “no significant impact; also recorded: no significant effect”, the “reduction of brain Aβ40 (range given for both Aβ40 and Aβ42)” value (Aβ40; [4]) was 22-62 % reduction and the “brain Aβ42 levels” value (Aβ42) was “no significant impact; also recorded: no significant effect”. For the same molecule, the “reduction of brain Aβ42 (range given for both Aβ40 and Aβ42)” value (Aβ42; [4]) was 22-62 % reduction, the “Mean Plaque Size (μm^2)” value (TgCRND8 mice [1]; [5]) was 346 ± 6 μm^2 and the “Total Plaque Area (μm^2)” value (TgCRND8 mice [1]; [5]) was 459706 ± 49966 μm^2. For the same molecule, the “Mean Plaque Size (μm^2)” value (TgCRND8 mice [1]; [6]) was 95 ± 43 μm^2, the “Total Plaque Area (μm^2)” value (TgCRND8 mice [1]; [6]) was 65042 ± 5199 μm^2 and the “Mean Plaque Size (μm^2)” value (TgCRND8 mice [1]; [7]) was 370 ± 9 μm^2. The “Total Plaque Area (μm^2)” value (TgCRND8 mice [1]; [7]) was 380456 ± 13498 μm^2, the “amyloid burden in hippocampus and cerebral cortex” value (shortened to “amyloid burden”) (TgCRND8 mice [1]) was “modest effect on amyloid burden” and the “amyloid burden” value (TgCRND8 mice [1]; listed as AZD-102) was “modest effect on amyloid burden”. For the same molecule, the “percent area of the brain covered with plaques” value (TgCRND8 mice [1]; [8]) was “no significant impact; also recorded: no significant effect”, the “plaque number” value (TgCRND8 mice [1]; [8]) was “no significant impact; also recorded: no significant effect” and the “Mean Plaque Size (μm^2)” value (TgCRND8 mice [1]; [9]) was 346 ± 6 μm^2. For the same molecule, the “Total Plaque Area (μm^2)” value (TgCRND8 mice [1]; [9]) was 459706 ± 49966 μm^2, the “Total Plaque Count” value (TgCRND8 mice [1]; [9]) was 1342 ± 114 and the “mean plaque size” value (TgCRND8 mice [1]; TgCRND8 mice, prophylactic, 4 months of age) was “significant decrease in mean plaque size”. The “mean plaque size” value (TgCRND8 mice [1]; [10]) was “reductions were not sustained”, the “astrogliosis (percent brain area covered)” value (TgCRND8 mice [2]) was “decreased the percent brain area covered in astrogliosis” and the “astrogliosis (percent brain area covered)” value (TgCRND8 mice [2]; listed as AZD-102) was “decreased the percent brain area covered in astrogliosis; also recorded: decrease in astrogliosis”. The “astrogliosis (percent brain area covered)” value (TgCRND8 mice [2]; listed as Epi-cyclohexanehexol) was “decreased the astrogliotic response; also recorded: decrease in astrogliosis”, the “microgliosis / microglial activation (percent brain area covered)” value (TgCRND8 mice [2]) was “decreased the percent brain area covered with microgliosis” and the “microgliosis / microglial activation (percent brain area covered)” value (TgCRND8 mice [2]; listed as AZD-102) was “decreased the percent brain area covered with microgliosis”. The “microgliosis / microglial activation (percent brain area covered)” value (TgCRND8 mice [2]; listed as Epi-cyclohexanehexol) was “no effect on microglial activation”, the “survival (Kaplan-Meier cumulative survival)” value (from here on “survival”) (TgCRND8 mice [3]; listed as AZD-102) was “did not significantly improve survival” and the “survival” value (TgCRND8 mice [3]; listed as Epi-cyclohexanehexol) was “did not significantly improve survival”.
For `OC1C(O)C(O)C(O)C(O)C1O` (stereo not shown) [scyllo-cyclohexanehexol, 1,3,5/2,4,6-(scyllo-) cyclohexanehexol], the “brain Aβ40 levels” value (Aβ40) was “reduced levels”, the “brain Aβ42 levels” value (Aβ42) was “reduced levels” and the “Mean Plaque Size (μm^2)” value (TgCRND8 mice [1]; [5]) was 336 ± 6* μm^2. For the same molecule, the “Total Plaque Area (μm^2)” value (TgCRND8 mice [1]; [5]) was 420027 ± 14986* μm^2, the “Mean Plaque Size (μm^2)” value (TgCRND8 mice [1]; [6]) was 103 ± 4* μm^2 and the “Total Plaque Area (μm^2)” value (TgCRND8 mice [1]; [6]) was 63847 ± 2895 μm^2. For the same molecule, the “Mean Plaque Size (μm^2)” value (TgCRND8 mice [1]; [7]) was 339 ± 10† μm^2, the “Total Plaque Area (μm^2)” value (TgCRND8 mice [1]; [7]) was 262379 ± 5373† μm^2 and the “amyloid burden” value (TgCRND8 mice [1]) was “significantly decreased amyloid burden”. The “amyloid burden” value (TgCRND8 mice [1]; listed as AZD-103) was “significantly decreased amyloid burden”, the effect on pathology (TgCRND8 mice [1]; TgCRND8 mice treated for 2 months, ending at 7 months of age) was “Sustained effects” and the “percent area of the brain covered with plaques” value (TgCRND8 mice [1]; [8]) was “significantly reduced”. For the same molecule, the “plaque number” value (TgCRND8 mice [1]; [8]) was “significantly reduced”, the “plaque size” value (TgCRND8 mice [1]; [8]) was “significantly reduced” and the “plaque count, dose-response” value (TgCRND8 mice [1]; TgCRND8 mice, 0.3-30 mg/kg/d orally, 4 months of age, 6F3D immunostaining) was “dose-dependent decrease; also recorded: improvement”. For the same molecule, the “percent area of the brain covered by plaques, reduction” value (TgCRND8 mice [1]; [11]) was 14±0.5 % reduction, the plaque number reduction (TgCRND8 mice [1]; [11]) was 13±0.3 % reduction and the plaque size reduction (TgCRND8 mice [1]; [11]) was 16±0.4 % reduction. For the same molecule, the “plaque burden in hippocampus” value (TgCRND8 mice [1]; TgCRND8 mice, one month of treatment from 5 months of age) was “lower plaque burden”, the “Mean Plaque Size (μm^2)” value (TgCRND8 mice [1]; [12]) was 336 ± 6* μm^2 and the “Total Plaque Area (μm^2)” value (TgCRND8 mice [1]; [12]) was 420027 ± 14986* μm^2. The “Total Plaque Count” value (TgCRND8 mice [1]; [12]) was 1260 ± 27, the “mean plaque size” value (TgCRND8 mice [1]; [10]) was “smaller mean plaque size” and the “all measures of plaque burden” value (TgCRND8 mice [1]; TgCRND8 mice, prophylactic, at 4 and 6 months of age) was “sustained decrease in all measures of plaque burden”. The “astrogliosis (percent brain area covered)” value (TgCRND8 mice [2]) was “decreased astrogliosis much more efficiently”, the “astrogliosis (percent brain area covered)” value (TgCRND8 mice [2]; listed as AZD-103) was “decreased the astrogliotic response to a greater extent; also recorded: significantly decreased” and the “astrogliosis (percent brain area covered)” value (TgCRND8 mice [2]; listed as Scyllo-cyclohexanehexol) was “decreased the astrogliotic response to a greater extent than epi-cyclohexanehexol; also recorded: significantly decreased”. The “microgliosis / microglial activation (percent brain area covered)” value (TgCRND8 mice [2]) was “attenuated microglial activation; also recorded: decreased the percent brain area covered with microgliosis”, the “microgliosis / microglial activation (percent brain area covered)” value (TgCRND8 mice [2]; listed as AZD-103) was “decreased the percent brain area covered with microgliosis” and the “survival” value (TgCRND8 mice [3]) was “accelerated mortality was reversed; also recorded: increased survival”. The “survival” value (TgCRND8 mice [3]; listed as AZD-103) was “increased survival”.
